This is an account of results in US8048880B2, “Treatment of cardiovascular disease and dyslipidemia using secretory phospholipase A2 (SPLA2) inhibitors and SPLA2 inhibitor combination therapies” (Anthera Pharmaceuticals, Inc., priority 2007, dated 2011).

Experiment [1] has as its system ApoE−/− mice. The experiment in a line: Plasma total cholesterol levels in ApoE−/− mice on high fat diet (Example 1). Format: in vivo. Particulars: at 16 weeks. On the procedure: Male ApoE^−/− mice were fed a high fat diet (21% fat, 0.15% cholesterol, 19.5% casein) ad libitum for two weeks in order to acclimate to the diet. Plasma cholesterol levels and body weight were measured in order to obtain baseline levels, and mice were randomized into three groups of 20 mice based on these measurements. After the acclimation period, mice remained on the high fat diet and were administered A-002 (30 mg/kg or 90 mg/kg) or vehicle only (5% acacia) twice a day for 16 weeks by oral gavage.
Plasma cholesterol levels and body weight were measured at 4, 8, 12, and 16 weeks after the start of A-002 administration. Comparisons of measurements between test and control mice at each time period were performed using a two-way analysis of variance test (ANOVA) for repeated measures, followed by post-hoc Bonferroni test for significance.

Experiment [2] has as its system ApoE−/− mice. The experiment in a line: Angiotensin II-mediated atherosclerotic plaque formation and aneurysm in ApoE−/− mice (Example 2). The experiment is classed as in vivo. The procedure:
A mouse model of accelerated atherosclerosis was utilized to determine the effect of A-002 administration on atherosclerosis and aneurysm formation. ApoE^−/− mice acclimated to the same high fat diet utilized in Example 1 were administered angiotensin II with water, angiotensin with 5% acacia, or saline infusion and water twice daily for four weeks. […] At the end of the test period, plaque coverage was assessed by three independent reviewers, and their assessments were averaged to determine plaque coverage.

`CCc1c(C(=O)C(N)=O)c2c(OCC(=O)OC)cccc2n1Cc1ccccc1` [A-002, [[3-(2-Amino-1,2-dioxoethyl)-2-ethyl-1-(phenylmethyl)-1H-indol-4-yl]oxy]acetic acid methyl ester]: the figures for the “change from baseline in total cholesterol” value in the experiment with ApoE−/− mice [1] (30 mg/kg A-002 twice a day) and in the experiment on ApoE−/− mice [1] (90 mg/kg A-002 twice a day) were −10% and −12%, respectively. Besides, the “Aneurysm rate (%)” value with ApoE−/− mice [2] (angiotensin II + 5% acacia + 30 mg/kg A-002 twice daily, four weeks) is 0% (0/16). Moreover, the plaque content entry in the experiment on ApoE−/− mice [2] (angiotensin II/acacia mice, 30 mg/kg A-002 twice daily, four weeks (FIG. 4)) is recorded as “significantly decreased”.
